Laboratory results as given in patent US9182664B2, “Polymerizable fluorine-containing sulfonate, fluorine-containing sulfonate resin, resist composition and pattern-forming method using same” (Central Glass Company, Limited, priority 2010, dated 2015).
Where two headings read alike, the source gives them in different places.

Test: Solubility of polymerizable fluorine-containing sulfonic acid onium salts (polymerizable monomers) in PGMEA
Type: physicochemical
From the text: The structures and abbreviations of the polymerizable monomers used in this reference example are indicated below. Among others, the monomers PAG-1, PAG-2 and PAG-3 are the polymerizable fluorine-containing sulfonic acid onium salts according to the present invention. [table]

[1] = amount of polymerizable monomer in 100 g of PGMEA

Row | Structure (SMILES) | Solubility (g/100 g) | Solubility (g/100 g) [1]
1 | C=C(C)C(=O)OC(OCC(F)(F)S(=O)(=O)O)(C(=O)OCC)C(F)(F)F (centres unmarked) [PAG-1, Triphenylsulfonium 2-(1-Ethoxycarbonyl-1-methacryloyloxy-2,2,2-trifluoroethoxy)-1,1-difluoroethanesulfonate] | 45 g/100 g | –
2 | C=C(C)C(=O)OC(OCCC(F)(F)C(F)(F)S(=O)(=O)O)(C(=O)OCC)C(F)(F)F (centres unmarked) [PAG-2, Triphenylsulfonium 4-(1-Ethoxycarbonyl-1-methacryloyloxy-2,2,2-trifluoroethoxy)-1,1,2,2-tetrafluorobutanesulfonate] | 55 g/100 g | –
3 | C=C(C)C(=O)OC(OCCCCC(F)(F)C(F)(F)S(=O)(=O)O)(C(=O)OCC)C(F)(F)F (centres unmarked) [PAG-3, Triphenylsulfonium 6-(1-Ethoxycarbonyl-1-methacryloyloxy-2,2,2-trifluoroethoxy)-1,1,2,2-tetrafluorohexanesulfonate] | 90 g/100 g | –
4 | C=C(C)C(=O)OCC(F)(F)S(=O)(=O)O [PAG-C1, reference compound] | – | 10 g/100 g
5 | C=C(C)C(=O)OCC(=O)OCC(F)(F)S(=O)(=O)O [PAG-C2, reference compound] | – | 11 g/100 g
